Blank lines part the entries; values can stand above or below the compound they belong to.
How the values were obtained:
gamma-secretase [1] = assay: Mass spectrometry (SELDI) analysis of secreted Aβ from CHO-APPSwe cells; format: cell-based, Chinese Hamster; conditions: 1 μM, 18 h
Protocol: CHO-APPSwe cells were plated at 1 million cells per well in 6-well dishes and treated with complete DMEM medium containing either vehicle alone (DMSO), 1 μM Compound 2, or 1 μM GSI 1. Cells were incubated for 18 h, medium collected, and levels of secreted Aβ determined by mass spectrometry. Briefly, collected medium was immunoprecipitated overnight using antibody B436 coupled directly to Sepharose. Fifty ng of Aβ1-28 peptide was spiked into the medium as an internal standard. The Sepharose beads were then washed with TBS and bound Aβ was eluted with acetonitrile/0.1% trifluoroacetic acid. Eluate (3-6 μl) was spotted on NP20 chips (Ciphergen). Once the samples were dry, 20% CHCA matrix was spotted (1 μl) and allowed to dry. Chips were read on a SELDI Ciphergen mass spectrometer and Aβ peptides were identified by expected mass and comparison to standard purchased Aβ peptides (Bachem).

gamma-secretase [2] = assay: Sandwich ELISA of secreted Aβ from CHO-APPSwe cells; format: cell-based, Chinese Hamster; conditions: 18 h
Protocol: For ELISA analysis, CHO-APPSwe cells were seeded at a density of 100K/well in 96-well plates and allowed to adhere overnight. Medium was removed and replaced with complete DMEM medium containing either vehicle alone (DMSO) or a dose-response of Compound 2 or GSI 1 (the gamma-secretase inhibitor designated Inhibitor 1 in Tian et al. (2002) J. Biol. Chem. 277:31499-31505). Cells were incubated with compounds for 18 h, medium collected, and levels of secreted Aβ determined as described below. Cytotoxicity was determined on each well to be less than 30% using an Alamar Blue assay (see US Published Application 2005/0070538).
Secreted Aβ38 peptide was quantified using an ultra-sensitive sandwich ELISA assay kit (Meso Scale Detection catalog #K111FSE-2) and the Meso Scale Sector Imager 6000 for detection, according to the manufacturer's recommended protocol. Captured Aβ was quantified by comparing ECL signals of the samples to a standard curve (included on each plate) using synthetic Aβ prepared in complete DMEM medium. Aβ standard peptides were purchased from Bachem and stored at 0.5 mg/ml in hexafluoroisopropanol (HFIP) at −20° C.
Secreted Aβ40, Aβ42, and total Aβ were measured using specific sandwich ELISAs. Aβ peptides were captured using either an Aβ40-selective monoclonal antibody (B113), an Aβ42-selective monoclonal antibody (A387), or a total Aβ (1-x) capture monoclonal antibody raised to the amino-terminal region (B436) (see PCT publication WO 04/018997).
Briefly, 96-well white ELISA plates were coated with the appropriate capture antibody, wells were blocked with 1% BSA/TBS, and then samples were assayed in complete medium at an appropriate dilution so that the relative luminescent units (RLUs) were in the linear range of the standard curve. Following sample incubation for all ELISAs, plates were washed and exposed to an alkaline phosphatase (AP) conjugated secondary antibody. For Aβ40 and Aβ42, B436-AP was used as the second antibody in the sandwich ELISA. For the total Aβ ELISA, 4G8-biotin (Signet) (a monoclonal antibody that recognizes the Aβ17-24) was used in combination with strepavidin-AP as the detection complex. Thus, for this experiment, total Aβ includes Aβ peptides from 1-x, where x>24. Bound AP-conjugates were detected with CSPD-Sapphire II Luminescence Substrate (Applied Biosystems) and plates were read using a standard 96-well luminometer.
Captured Aβ was quantified by comparing RLU values of the samples to a standard curve (included on each plate) using synthetic Aβ prepared in complete media. Aβ standard peptides were purchased from Bachem and stored at 0.5 mg/ml in hexafluoroisopropanol (HFIP) at −20° C.

GST-Pen2 = GST-Pen2 (Homo sapiens, UniProt Q9NZ42); assay: Surface plasmon resonance (SPR) assay, Biacore 2000; conditions: equilibrium responses fit to 1:1 binding isotherm; estimated
Protocol: A surface plasmon resonance (SPR) assay was performed using the Biacore™ 2000 system and control software (Biacore Life Sciences), essentially as described in Warnmark et al. (2001) J. Biol. Chem. 276:23397-23404. Compound 2 or L-685,458 (Sigma #L1790) were diluted 30 fold from a 25 mM stock in 100% DMSO, then each further diluted into running buffer containing 10 mM HEPES, 150 mM NaCl, 1% Triton X-100, pH 7.4. The compounds were run in a 3-fold dilution series over a GST-Pen2 or a free GST flow cell surface. The binding responses at equilibrium for each compound were fit to a 1:1 binding isotherm in order to estimate the binding affinities.

[3] = test system: ε-cleavage of a gamma-secretase substrate, Notch; assay: Epsilon cleavage assay: Notch (NICD) in HEK293 cells overexpressing APP751 and NΔE/S2; format: cell-based; conditions: 18 h
Protocol: The effect of Compound 2 treatment on ε-cleavage of a gamma-secretase substrate, Notch, was assessed using an HEK293 clonal cell line overexpressing APP751 and the Notch construct NΔE/S2. The NΔE/S2 construct lacks most of the extracellular domain of Notch (Schroeter et al. (1998) Nature 393:382-386), and when cleaved by γ-secretase results in production of the Notch intracellular domain (NICD). The cells were plated in replicate 24-well dishes and treated in triplicate with 30 μM of Compound 2, 1 μM of the gamma secretase inhibitor N—[N-(3,5-Difluorophenacetyl-L-alanyl)]S-phenylglycine t-butyl ester (DAPT), or vehicle (0.12% DMSO), for 18 h. Following compound treatment, conditioned medium was collected and analyzed for levels of secreted Aβ40, which confirmed compound activity. Cell lysates were prepared and separated on a 4-20% Tris-glycine gel and probed with an anti-NICD antibody (Cell Signaling, #2421) specific for the cleaved NICD, or anti-GAPDH, which served as a loading control for each lane. NICD bands were then quantified by densitometry and an average of replicate values was compared to the vehicle controls.

[4] = test system: γ-secretase-dependent cleavage of E-cadherin; assay: γ-secretase-dependent cleavage of E-cadherin in A431 cells, western blotting; format: cell-based, Human; conditions: overnight (16-18 h), then 6 h 1 μM staurosporine
Protocol: To measure γ-secretase-dependent cleavage of E-cadherin, an assay similar to that described by Marambaud et al. (2002) EMBO 21: 1948-1956 was developed. Human A431 cells which endogenously express detectable levels of E-cadherin and cleave full length E-cadherin upon treatment with staurosporine are treated overnight (16-18 h) with either test compound or control γ-secretase inhibitor (DAPT). Cleavage of E-cadherin is induced by a 6 h treatment with 1 μM staurosporine. Cell lysates are analyzed for levels of γ-CTF by western blotting and protein bands are quantified by densitometry.

gamma-secretase [5] = assay: Immunoprecipitation and immunoblot analysis of Aβ in CHO-APPSwe conditioned medium; format: cell-based, Chinese Hamster; conditions: 18 h, Compound 2 0.3-1000 nM, GSI 1 3-1000 nM
Protocol: For this analysis, CHO-APPSwe cells were treated with concentrations of Compound 2 ranging from 0.3 nM to 1000 nM, or with concentrations of a gamma-secretase inhibitor, GSI 1 (Tian et al. (2002) J. Biol. Chem. 277 (35), 31499-31505) ranging from 3 nM to 1000 nM, or with vehicle (0.12% DMSO), for 18 hours. The conditioned medium was collected and immunoprecipitated with the anti-Aβ1-12 antibody B436. Samples were denatured and electrophoresed on gels prepared according to Wiltfang et al. (1997) Electrophoresis 18:527-532, with the following improvements: the separating gel contained 12.5% instead of 15% acrylamide, the comb gel layer was omitted, and glycerol (25%) and DTT (100 mM) were substituted for sucrose and β-mercaptoethanol in the 2× sample buffer. Chemically synthesized Aβ1-37, Aβ1-38, Aβ1-40 and Aβ1-42 peptides (Bachem) were run as size standards. After electrophoresis, the peptides were transferred to nitrocellulose filters and immunoblotted with a biotinylated B436 antibody to detect the various Aβ alloforms.

[6] = test system: ε-cleavage of endogenous E-cadherin; conditions: cited from earlier work
[7] = to a lesser extent than Aβ37 and Aβ38

Sequence of GST-Pen2 (Q9NZ42 whole entry): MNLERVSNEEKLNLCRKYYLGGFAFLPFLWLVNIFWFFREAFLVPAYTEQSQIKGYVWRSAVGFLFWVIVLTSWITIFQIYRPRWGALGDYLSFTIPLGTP

SMILES: COc1cc(C)c(Nc2nc(-c3ccc(-n4cnc(C)c4)c(F)c3)cs2)cc1C(C)C [Compound 2]
Aβ37 compared to vehicle treated cells (gamma-secretase [1]): increased
Aβ38 compared to vehicle treated cells (gamma-secretase [1]): increased
Aβ33 compared to vehicle treated cells (gamma-secretase [1]; [7]): increased
Aβ34 compared to vehicle treated cells (gamma-secretase [1]; [7]): increased
secreted Aβ40 level (gamma-secretase [2]; ELISA): concentration dependent decrease
secreted Aβ42 level (gamma-secretase [2]; ELISA): concentration dependent decrease
total Aβ level (gamma-secretase [2]; ELISA, Aβ 1-x, x>24): did not significantly change
secreted Aβ38 level (gamma-secretase [2]; ultra-sensitive sandwich ELISA): markedly increased
Kd (GST-Pen2): 6.5 µM
inhibition of Notch processing ([3]; up to 30 μM): no detectable inhibition
inhibition of E-cadherin cleavage/processing (γ-CTF) [4]: no detectable inhibition
level of Aβ1-37 in conditioned medium (gamma-secretase [5]): increase
level of Aβ1-38 in conditioned medium (gamma-secretase [5]): increase
level of Aβ1-40 in conditioned medium (gamma-secretase [5]): lower

SMILES: C[C@H](NC(=O)Cc1cc(F)cc(F)c1)C(=O)N[C@H](C(=O)OC(C)(C)C)c1ccccc1 [DAPT, N—[N-(3,5-Difluorophenacetyl-L-alanyl)]S-phenylglycine t-butyl ester, reference compound]
effect on E-cadherin CTF1 or CTF3 [6]: no effect
formation of E-cadherin CTF2 [6]: inhibit
inhibition of NICD formation ([3]; 1 μM): > 95%
inhibition of E-cadherin cleavage/processing (γ-CTF) [4]: completely inhibits

Kd (GST-Pen2): 1900 µM
SMILES: CC(C)C[C@H](NC(=O)[C@H](Cc1ccccc1)C[C@@H](O)[C@H](Cc1ccccc1)NC(=O)OC(C)(C)C)C(=O)N[C@@H](Cc1ccccc1)C(N)=O [L-685,458]
effect on E-cadherin CTF1 or CTF3 [6]: no effect
formation of E-cadherin CTF2 [6]: inhibit

SMILES: C[C@H](NC(=O)Cc1cc(F)cc(F)c1)C(=O)N[C@H]1N=C(c2ccccc2)c2ccccc2N(C)C1=O [Compound E]
effect on E-cadherin CTF1 or CTF3 [6]: no effect
formation of E-cadherin CTF2 [6]: inhibit

Reference: US8871460B2, “Gamma-secretase modulatory compounds, methods for identifying same, and uses therefor” (Neurogenetic Pharmaceuticals, Inc., priority 2009, dated 2014)
